From ChEMBL document CHEMBL1133456, “Synthesis and anticonvulsant activity of novel and potent 6,7-methylenedioxyphthalazin-1(2H)-ones” (J Med Chem, 2000)

Key:
[1] = Toxic dose in DBA/2 mice; Values ranges from: 82.6-306; format: toxicity; conditions: DBA/2, mouse, in vivo
[2] = Relative lipophilicity expressed as Rm value; format: physicochemical; conditions: octanol/water
[3] = Ratio between TD50 and ED50 from the clonic phase of audiogenic seizures in mice; format: ADME, organism-based; conditions: mouse, in vivo; read-out: Protective index
[4] = Anticonvulsant activity against audiogenic seizures in DBA/2 mice expressed as ED50 values in tonic phase; Values ranges from: 8.98-27.3; format: functional; conditions: Mus musculus
[5] = Toxic dose in DBA/2 mice; Values ranges from: 59.5-88.2; format: toxicity; conditions: DBA/2, mouse, in vivo
[6] = Anticonvulsant activity against audiogenic seizures in DBA/2 mice expressed as ED50 values in clonic phase; […]; format: functional; conditions: Mus musculus
[7] = Anticonvulsant activity against audiogenic seizures in DBA/2 mice in clonic phase at a time interval of 30 min after intraperitoneal administration; Values ranges from: 9.04-49.8; format: functional; conditions: Mus musculus, ip, 0.5 h
[8] = Anticonvulsant activity against audiogenic seizures in DBA/2 mice in clonic phase at a time interval of 90 min after intraperitoneal administration; Values ranges from: 30.5-62.3; format: functional; conditions: Mus musculus, ip, 1.5 h
[9] = Toxic dose in DBA/2 mice; Values ranges from: 44.3-81.6; format: toxicity; conditions: DBA/2, mouse, in vivo
[10] = Anticonvulsant activity against audiogenic seizures in DBA/2 mice after pretreatment with Aniracetam expressed as ED50 values in tonic phase; Values ranges from: 21.9-46.8; format: functional; conditions: Mus musculus
[11] = Anticonvulsant activity against audiogenic seizures in DBA/2 mice in clonic phase at a time interval of 60 min after intraperitoneal administration; Values ranges from: 18.8-47.0; format: functional; conditions: Mus musculus, ip, 1 h
[12] = Anticonvulsant activity against audiogenic seizures in DBA/2 mice after pretreatment with Aniracetam expressed as ED50 values in clonic phase; Values ranges from: 40.9-79.2; format: functional; conditions: Mus musculus
[13] = Anticonvulsant activity against audiogenic seizures in DBA/2 mice expressed as ED50 values in clonic phase; Values ranges from: 9.04-49.8; format: functional; conditions: Mus musculus
[14] = Anticonvulsant activity against ATPA induced seizures in DBA/2 mice expressed as ED50 values in tonic phase; Values ranges from: 22.7-44.8; format: functional; conditions: Mus musculus
[15] = Anticonvulsant activity against maximal electroshock (MES) induced seizures in Swiss mice; Values ranges from: 29.9-57.3; format: functional; conditions: Mus musculus
[16] = Anticonvulsant activity against Pentylenetetrazole (PTZ) induced seizures in Swiss mice; Values ranges from: 30.9-78.8; format: functional; conditions: Mus musculus
[17] = Anticonvulsant activity against audiogenic seizures in DBA/2 mice in clonic phase at a time interval of 15 min after intraperitoneal administration; Values ranges from: 25.1-42.6; format: functional; conditions: Mus musculus, ip, 0.25 h
[18] = Anticonvulsant activity against AMPA induced seizures in DBA/2 mice expressed as ED50 values in clonic phase; Values ranges from: 27.1-47.3; format: functional; conditions: Mus musculus
[19] = Anticonvulsant activity against AMPA induced seizures in DBA/2 mice expressed as ED50 values in tonic phase; Values ranges from: 32.6-62.7; format: functional; conditions: Mus musculus
[20] = Anticonvulsant activity against ATPA induced seizures in DBA/2 mice expressed as ED50 values in clonic phase; Values ranges from: 25.8-57.7; format: functional; conditions: Mus musculus
[21] = Anticonvulsant activity against KA induced seizures in swiss mice; Values ranges from: 30.3-50.1; format: functional; conditions: Mus musculus
[22] = Anticonvulsant activity against audiogenic seizures in DBA/2 mice expressed as ED50 values in tonic phase; Values ranges from: 2.47-23.1; format: functional; conditions: Mus musculus
[23] = Anticonvulsant activity against audiogenic seizures in DBA/2 mice in clonic phase at a time interval of 120 min after intraperitoneal administration; format: functional; conditions: Mus musculus, ip, 2 h
[24] = Anticonvulsant activity against audiogenic seizures in DBA/2 mice in clonic phase at a time interval of 45 min after intraperitoneal administration; Values ranges from: 13.8-41.2; format: functional; conditions: Mus musculus, ip, 0.75 h
[25] = Toxic dose in DBA/2 mice; Values ranges from: 52.0-194; format: toxicity; conditions: DBA/2, mouse, in vivo
[26] = Anticonvulsant activity against audiogenic seizures in DBA/2 mice expressed as ED50 values in tonic phase; format: functional; conditions: Mus musculus
[27] = Anticonvulsant activity against audiogenic seizures in DBA/2 mice expressed as ED50 values in clonic phase; format: functional; conditions: Mus musculus
[28] = Toxic dose in DBA/2 mice; format: toxicity; conditions: DBA/2, mouse, in vivo
[29] = Ratio between TD50 and ED50 from the clonic phase of audiogenic seizures; format: ADME; conditions: read-out: Protective index
[30] = Anticonvulsant activity against ATPA induced seizures in DBA/2 mice expressed as ED50 values in clonic phase; format: functional; conditions: Mus musculus
[31] = Anticonvulsant activity against audiogenic seizures in DBA/2 mice in clonic phase at a time interval of 60 min; format: functional; conditions: Mus musculus, 1 h
[32] = Anticonvulsant activity against audiogenic seizures in DBA/2 mice in clonic phase at a time interval of 45 min; format: functional; conditions: Mus musculus, 0.75 h
[33] = Anticonvulsant activity against AMPA induced seizures in DBA/2 mice expressed as ED50 values in clonic phase; format: functional; conditions: Mus musculus
[34] = Anticonvulsant activity against Pentylenetetrazole (PTZ) induced seizures in Swiss mice.; format: functional; conditions: Mus musculus
[35] = Anticonvulsant activity against AMPA induced seizures in DBA/2 mice expressed as ED50 values in tonic phase; format: functional; conditions: Mus musculus
[36] = Anticonvulsant activity against audiogenic seizures in DBA/2 mice in clonic phase at a time interval of 30 min; format: functional; conditions: Mus musculus, 0.5 h
[37] = Anticonvulsant activity against KA induced seizures in DBA/2 mice; format: functional; conditions: Mus musculus
[38] = Anticonvulsant activity against maximal electroshock (MES) induced seizures in Swiss mice.; format: functional; conditions: Mus musculus
[39] = Anticonvulsant activity against audiogenic seizures in DBA/2 mice in clonic phase at a time interval of 90 min; format: functional; conditions: Mus musculus, 1.5 h
[40] = Anticonvulsant activity against audiogenic seizures in DBA/2 mice after pretreatment with Aniracetam expressed as ED50 values in clonic phase; format: functional, Mus musculus
[41] = Anticonvulsant activity against audiogenic seizures in DBA/2 mice in clonic phase at a time interval of 120 min; format: functional; conditions: Mus musculus, 2 h
[42] = Anticonvulsant activity against audiogenic seizures in DBA/2 mice in clonic phase at a time interval of 15 min; format: functional; conditions: Mus musculus, 0.25 h
[43] = Anticonvulsant activity against ATPA induced seizures in DBA/2 mice expressed as ED50 values in tonic phase; format: functional; conditions: Mus musculus
[44] = Toxic does was determined in DBA/2 mice; Values ranges from: 47.5-122; format: toxicity; conditions: DBA/2, mouse
[45] = Anticonvulsant activity against audiogenic seizures in DBA/2 mice in clonic phase at a time interval of 45 min after intraperitoneal administration; Values ranges from: 27.2-52.1; format: functional; conditions: Mus musculus, ip, 0.75 h
[46] = Anticonvulsant activity against ATPA induced seizures in DBA/2 mice. activity is expressed as ED50 values in clonus phase; Values ranges from: 45.4-89.7; format: functional; conditions: Mus musculus
[47] = Anticonvulsant activity against ATPA induced seizures in DBA/2 mice. activity is expressed as ED50 values in tonus phase; Values ranges from: 32.4-57.3; format: functional; conditions: Mus musculus

O=C1Cc2cc3c(cc2C(c2ccccc2)=NN1)OCO3
TD50 [1]: 159 µmol/kg
Rm [2]: -0.142
selectivity ratio [3]: 3.7

Nc1cccc(-c2nnc(O)c3cc4c(cc23)OCO4)c1
ED50 [4]: 15.7 µmol/kg
Rm [2]: -0.399
TD50 [5]: 72.4 µmol/kg
ED50 [6]: 23.3 µmol/kg
selectivity ratio [3]: 3.1

Nc1ccc(-c2nnc(O)c3cc4c(cc23)OCO4)cc1
ED50 [7]: 21.2 µmol/kg
ED50 [8]: 43.6 µmol/kg
TD50 [9]: 60.1 µmol/kg
ED50 [10]: 32 µmol/kg
ED50 [11]: 29.7 µmol/kg
ED50 [12]: 56.9 µmol/kg
Rm [2]: -0.454
ED50 [13]: 21.2 µmol/kg
ED50 [14]: 31.9 µmol/kg
ED50 [15]: 41.4 µmol/kg
ED50 [16]: 49.4 µmol/kg
ED50 [17]: 32.7 µmol/kg
ED50 [18]: 35.8 µmol/kg
ED50 [19]: 45.2 µmol/kg
selectivity ratio [3]: 2.8
ED50 [20]: 38.6 µmol/kg
ED50 [21]: 38.9 µmol/kg
ED50 [22]: 7.56 µmol/kg
ED50 [23]: > 50 µmol/kg
ED50 [24]: 23.8 µmol/kg

Nc1cccc(C2=NNC(=O)Cc3cc4c(cc32)OCO4)c1
Rm [2]: -0.372
selectivity ratio [3]: 5.6
TD50 [25]: 101 µmol/kg

O=[N+]([O-])c1ccc(-c2nnc(O)c3cc4c(cc23)OCO4)cc1
ED50 [26]: > 100 µmol/kg
ED50 [27]: > 100 µmol/kg

CCNC(=O)n1nc(-c2ccc(N)cc2)c2cc3c(cc2c1=O)OCO3
Rm [2]: -0.235
TD50 [28]: 91.1 µmol/kg
ED50 [26]: 35.1 µmol/kg
ED50 [27]: 42.6 µmol/kg
selectivity ratio [29]: 2.1

Nc1ccc(-c2nn(C(=O)NC3CCCCC3)c(=O)c3cc4c(cc23)OCO4)cc1
Rm [2]: 0.108
TD50 [28]: 63.8 µmol/kg
ED50 [26]: 26.2 µmol/kg
ED50 [27]: 28.4 µmol/kg
selectivity ratio [29]: 2.2

CCCCNC(=O)n1nc(-c2ccc(N)cc2)c2cc3c(cc2c1=O)OCO3
ED50 [30]: 36.2 µmol/kg
ED50 [31]: 11.2 µmol/kg
ED50 [32]: 8.63 µmol/kg
ED50 [33]: 37 µmol/kg
ED50 [34]: 41.9 µmol/kg
ED50 [35]: 47.4 µmol/kg
Rm [2]: 0.002
ED50 [36]: 3.25 µmol/kg
ED50 [37]: 36.2 µmol/kg
TD50 [28]: 20.4 µmol/kg
ED50 [38]: 33.1 µmol/kg
ED50 [26]: 2.23 µmol/kg
ED50 [27]: 3.25 µmol/kg
ED50 [39]: 26.6 µmol/kg
selectivity ratio [29]: 6.3
ED50 [40]: 12.3 µM/kg
ED50 ([40]; Mus musculus, read-out: ED50): 17.6 µmol/kg
ED50 [41]: 44.1 µmol/kg
ED50 [42]: 13.9 µmol/kg
ED50 [43]: 30.1 µmol/kg

CC1=NN=C(c2ccc(N)cc2)c2cc3c(cc2C1)OCO3 [GYKI-52466]
TD50 [44]: 76.1 µmol/kg
Rm [2]: -0.304
ED50 [45]: 37.3 µmol/kg
selectivity ratio [3]: 2.1
ED50 [46]: 63.8 µmol/kg
ED50 [47]: 43.1 µmol/kg
